Assay results published in patent US11319296B2, “DP antagonist” (ONO PHARMACEUTICAL CO., LTD., priority 2018, dated 2022).

Legend:
Human DP receptor = biological target: T1, Human DP receptor (Homo sapiens, UniProt Q13258); experiment: Measurement of DP receptor antagonistic activity using human DP receptor expressing cells (cAMP-HTRF); format: cell-based; conditions: inhibition of cAMP production increased by 10 nmol/L prostaglandin D2
T1 construct: expressed in transfected cells
T1 sequence (Q13258 1-359): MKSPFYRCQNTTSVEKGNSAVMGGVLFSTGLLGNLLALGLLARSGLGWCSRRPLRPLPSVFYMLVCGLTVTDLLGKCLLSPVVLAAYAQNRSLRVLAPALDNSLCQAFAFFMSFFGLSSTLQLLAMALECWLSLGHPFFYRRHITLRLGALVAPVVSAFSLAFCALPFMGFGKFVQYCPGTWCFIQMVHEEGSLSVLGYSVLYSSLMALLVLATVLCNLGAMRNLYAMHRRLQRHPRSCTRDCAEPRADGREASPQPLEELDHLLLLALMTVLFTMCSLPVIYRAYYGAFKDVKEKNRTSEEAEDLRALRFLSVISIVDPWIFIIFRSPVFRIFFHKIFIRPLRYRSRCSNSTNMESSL
Description: Biological Example 1: Measurement of DP Receptor Antagonistic Activity Using Human DP Receptor Expressing Cells
cAMP-HTRF kit (SCETI MEDICAL LABO K.K., 62AM6PEJ) was used to measure DP receptor antagonistic activity. To a 384 well plate was added 10 μL/well of the compound of the present invention prepared at various concentrations and prostaglandin D2 (final concentration 10 nmol/L). Human DP receptor-expressing cells were suspended in phosphate buffer containing 2 μmoL/L diclofenac and 1 mmol/L IBMX (3-isobutyl-1-methylxantine) and seeded to 5000 cells/10 μL/well. After cell seeding, the cells were incubated at room temperature for 1 hour. Thereafter, anti-cAMP Cryptate conjugate and a cAMP-d2 solution were added according to a method of the measurement kit, and the mixture was incubated at room temperature for 1 hour, then the cAMP concentration in the sample was quantified.
Intensity of DP receptor antagonistic action by the compound of the present invention was represented by IC50 value (concentration of the compound of the present invention required to inhibit 50% of cAMP production in the absence of the compound of the present invention) calculated from an inhibition ratio to the cAMP production increased by 10 nmol/L prostaglandin D2 stimulation.

[1] = Measurement of concentration of compound in cerebrospinal fluid (CSF) after oral administration; format: in vivo; conditions: rat, 3 mg/kg, male Wistar rats, oral 3 mg/5 mL/kg, five test substances mixed, CSF collected 3 hours after administration
Description: Pharmacokinetic Test 1: Measurement of Concentration of Compound of Present Invention in Cerebrospinal Fluid (Hereinbelow, CSF)
Five test substances were mixed, and a test substance solution was prepared so that the dose of each test substance was 3 mg/5 mL/kg. The medium used was 5% DMSO 20% kolliphor HS15/propylene glycol (7:3). The test substance solution was orally administered to male 8- to 10-week-old Wistar rats purchased from Charles River Japan. Three hours after administration, the rats were anesthetized and CSF was collected by cisternal puncture. The same amount of ethanol (wako) as CSF was taken with a syringe used for collection, and the compound adsorbed on the syringe was recovered by washing.
Candesartan (TRC) was used as an internal standard substance, 40 μL of acetonitrile and 160 μL of Candesartan-containing acetonitrile/ethanol (7:3) were added to 10 μL of the obtained CSF sample, and the mixture was stirred. To prepare a calibration curve, 40 μL of the compound solution and 160 μL of Candesartan-containing acetonitrile/ethanol (7:3) were added to 10 μL of plasma, and the mixture was stirred. The entire amount of each solution was transferred to a deproteinization filter plate and suction filtered. The obtained filtrate was appropriately diluted with acetonitrile/water (1:1) and used for measurement. In the measurement, standard samples for calibration curve were prepared in the same matrix and analyzed in the same manner. The measurement was performed under the following conditions.
Liquid Chromatography System: Prominence UFLCXR (Shimadzu Corporation),
Column: Shim-pack XR-ODSII 2.0 mm ID×75 mm (Shimadzu Corporation),
Column temperature: 40° C.,
Mobile phase: A: 0.2% formic acid 5 mmol/L ammonium acetate aqueous solution, B: acetonitrile,
Mass spectrometry system: API4000, API5000 (AB SCIEX)
A regression equation was calculated from the peak area ratio (peak area of the test substance/peak area of the internal standard substance) obtained by measuring the standard samples for calibration curve using analysis software Analyst ver. 1.5.2 (AB SCIEX). The peak area ratio was also obtained for a measurement sample and substituted into the regression equation to calculate a quantitative value. In calculation of mean value and standard deviation, points below the lower limit of quantification were calculated as 0.

normal rat = experiment: Effect of prolonging normal rat awakening time (electroencephalogram/electromyogram); format: in vivo; conditions: rats, single oral dose of 3 mg/kg
Description: Biological Example 2: Effect of Prolonging Normal Rat Awakening Time
Chronic electrodes were placed in the brain and cervical muscles of rats to prepare rats in which electroencephalogram and electromyogram can be measured. After a recovery period of one week or more, the rat and a biological signal amplifier were connected in a shield box that blocked sound and electrical noise. After acclimatization in a measurement cage for 1 hour or more, various doses of the compound of the present invention were orally administered to rats in a single dose, and electroencephalogram and electromyogram were recorded 6 hours after the oral administration. After the measurement was completed, the rats were returned to a breeding cage each time, and a vehicle and each compound were evaluated with a washout period of one week or more.
The recorded electroencephalogram and electromyogram were analyzed using SleepSign Ver. 3 and divided into epochs every 10 seconds, and the stage was determined for any of awakening, non-REM sleep or REM sleep, with reference to characteristics of the electroencephalogram and electromyogram and spectral analysis results of each frequency component of the brain wave. […]

| SMILES | IC50 (Human DP receptor) [nM] | concentration at 3 h [1] [ng/mL] | awakening time-prolonging effect (difference in total awakening time of 6 hours after administration vs vehicle-administered group) (normal rat) [min] |
| --- | --- | --- | --- |
| Cc1cc(OCCC2CCCCO2)cc(C)c1C(=S)Nc1cc(C(C)C(=O)O)ccc1Cl (stereo in doubt) [Example 21, 2-(4-Chloro-3-{[(2,6-dimethyl-4-{2-[(2R)-tetrahydro-2H-pyran-2-yl]ethoxy}phenyl)carbothioyl]amino}phenyl)propanoic Acid] | 7.8 | 66 | – |
| O=C(O)Cc1ccc(Cl)c(NC(=O)c2ccc(OCCC3CCCCC3)cc2C(F)(F)F)c1 [Example 2-1, {4-Chloro-3-[4-(2-cyclohexylethoxy)-2-(trifluoromethyl)benzamide]phenyl}acetic Acid] | 34 | – | – |
| Cc1cc(OCCC2CCCCO2)cc(C)c1C(=O)Nc1cc(CC(=O)O)ccc1Cl (stereo not drawn) [Example 4, (4-Chloro-3-{2,6-dimethyl-4-[2-(oxan-2-yl)ethoxy]benzamide}phenyl)acetic Acid] | 58 | – | – |
| Cc1cc(OC2Cc3ccccc3C2)cc(C)c1C(=O)Nc1cc(CC(=O)O)ccc1F [Example 5, (3-{4-[(2,3-Dihydro-1H-inden-2-yl)oxy]-2,6-dimethylbenzamide}-4-fluorophenyl)acetic Acid] | 10 | – | – |
| Cc1cc(C#CCC2CCCCC2)cc(C)c1C(=O)Nc1cc(CC(=O)O)ccc1Cl [Example 7, {4-Chloro-3-[4-(3-cyclohexylprop-1-yn-1-yl)-2,6-dimethylbenzamide]phenyl}acetic Acid] | 16 | 45 | – |
| Cc1cc(/C=C/CC2CCCCC2)cc(C)c1C(=O)Nc1cc(CC(=O)O)ccc1Cl [Example 8, (4-Chloro-3-{4-[(1E)-3-cyclohexylprop-1-en-1-yl]-2,6-dimethylbenzamide}phenyl)acetic Acid] | 3.7 | 28 | 48 |
| Cc1cc(OCCC2CCCCO2)cc(C)c1C(=S)Nc1cc(CC(=O)O)ccc1Cl (stereo not drawn) [Example 10, [4-Chloro-3-({2,6-dimethyl-4-[2-(oxan-2-yl)ethoxy]benzene-1-carbothioyl}amino)phenyl]acetic Acid] | 9.6 | 43 | – |
| Cc1cc(OCC[C@H]2CCCCO2)cc(C)c1C(=S)Nc1cc(CC(=O)O)ccc1Cl [Example 12, {4-Chloro-3-[(2,6-dimethyl-4-{2-[(2R)-oxan-2-yl]ethoxy}benzene-1-carbothioyl]amino}phenyl}acetic Acid] | 4.8 | 48 | 60 |
| Cc1cc(OCCC2CCCCO2)cc(C)c1C(=S)Nc1cc(C(C)(C)C(=O)O)ccc1F (stereo not drawn) [Example 20, 2-{3-[({2,6-Dimethyl-4-[2-(tetrahydro-2H-pyran-2-yl)ethoxy]phenyl}carbothioyl)amino]-4-fluorophenyl}-2-methylpropanoic Acid] | 35 | 52 | – |

More lines, main results first:

| IC50 (Human DP receptor) [nM] | concentration at 3 h [1] [ng/mL] | SMILES | awakening time-prolonging effect (difference in total awakening time of 6 hours after administration vs vehicle-administered group) (normal rat) [min] |
| --- | --- | --- | --- |
| 11 | 29 | Cc1cc(OCCC2CCCCC2)cc(C)c1C(=O)Nc1cc(CC(=O)O)ccc1Cl [Example 4-1, {4-Chloro-3-[4-(2-cyclohexylethoxy)-2,6-dimethylbenzamide]phenyl}acetic Acid] | – |
| 1.7 | 36 | Cc1cc(OCCC2CCCCC2)cc(C)c1C(=S)Nc1cc(CC(=O)O)ccc1Cl [Example 10-1, (4-Chloro-3-{[4-(2-cyclohexylethoxy)-2,6-dimethylbenzene-1-carbothioyl]amino}phenyl)acetic Acid] | – |
| – | 55 | O=C(O)Cc1ccc(Cl)c(NC(=S)c2ccc(OCCC3CCCCO3)cc2C(F)(F)F)c1 (stereo not drawn) [Example 10-2, [4-Chloro-3-({4-[2-(oxan-2-yl)ethoxy]-2-(trifluoromethyl)benzene-1-carbothioyl}amino)phenyl]acetic Acid] | – |
| 5.1 | 34 | O=C(O)Cc1ccc(Cl)c(NC(=S)c2ccc(OCCc3ccccc3)cc2C(F)(F)F)c1 [Example 10-4, (4-Chloro-3-{[4-(2-phenylethoxy)-2-(trifluoromethyl)benzene-1-carbothioyl]amino}phenyl)acetic Acid] | – |
